Earlier results on two compounds are cited in patent US20050095265A1, “Process for making larvicidal evaporation suppressant powder” (priority 2002, published 2005).

The test system of data set [1] is Culex quinquefasciatus.
The test system of data set [2] is Anopheles gambiae.

For the compound `CCCCCCCCCCCCCCCCO` [cetyl alcohol, n-hexadecanol], in data set [1] (film-forming compound on water surface, Culex quinquefasciatus larvae), the larvicidal effect entry is on record as “no larvicidal effect”. In addition, the “effect on larvae of feeding on particles floating on the water surface” value in data set [1] (particles on water surface of test units, apparently fed upon by mosquito larvae) is on record as “no ill effect”. For the same compound, the “influence on aquatic larvae” value in data set [2] was “no appreciable influence”.
Turning to `CCCCCCCCCCCCO` [lauryl alcohol, dodecanol], in data set [1] (as reported by Lorenzen and Meinke), the mosquito larvae mortality entry is on record as “cause mosquito larvae mortality”.
